Laboratory results from patent US12415799B2, “Indazole-fused cyclic compound” (Zhejiang Yangli Pharmaceutical Technology Co., Ltd., priority 2020, dated 2025).

Assays:
[1] = In vivo pharmacokinetic study in mice; set-up: species or system female Balb/c mice
Text: Experimental purposes: To test the drug concentration in plasma of mice at different times after intravenous and intragastric administration of the test compound by LC/MS/MS using female Balb/c mice as the experimental animals. To study the pharmacokinetics of the test compound in mice in vivo and evaluate their pharmacokinetic characteristics.
Experimental animals: 4 healthy female Balb/c mice were divided into 2 groups according to the principle of similar body weight, with 2 mice in each group in IV group and 2 mice in each group in PO group. Animals were purchased from Shanghai Lingchang Biotechnology Co., Ltd.
Appropriate number of samples were weighed and prepared into 1 mg/mL solution respectively, and the mixture was stirred and ultrasonicated to reach a clear state, and the solvent was 15% HP-β-CD.
Administration: After fasting overnight, IV group was administered intravenously, and the dosage of the test compound was 5 mg/kg; PO group was administered intragastrically, and the dosage of the test compound was 10 mg/kg.
After the female Balb/c mice in the intravenous injection group were given the test compound respectively, 30 μL of blood was collected from the saphenous vein at 0.0833, 0.25, 0.5, 1, 2, 4, 8, and 24 hours, and placed in a commercialized anticoagulant tube added with EDTA-K2 in advance. After intragastric administration of the test compound, 30 μL of blood was collected from the saphenous vein at 0.25, 0.5, 1, 2, 4, 8, 12 and 24 hours, respectively, and placed in a commercialized anticoagulant tube added with EDTA-K2 in advance. After centrifugation (3,200 g, 4° C., 10 minutes), the plasma was collected, transferred to a pre-cooled centrifuge tube, quickly frozen in dry ice, and stored in a refrigerator at −60° C. or lower, until LC-MS/MS analysis. Animals were allowed to eat 4 hours after administration. LC/MS/MS method was used to determine the content of the test compound in the plasma of mice after intravenous and intragastric administration. The linear range of the method was 2.00 to 2000 nM.

[2] = test system: MCF-7 breast cancer cell xenograft; assay: In vivo efficacy, MCF-7 breast cancer cell xenograft model; set-up: species or system BALB/c nude mice
Experimental: The purpose of this experiment was to evaluate the antitumor effect of the compound of the present disclosure on MCF-7 breast cancer cell xenograft BALB/c nude mice (provided by the Experimental Animal Management Department of the Shanghai Institute of Family Planning Sciences, and the number of test animals in each experimental group was 5) model.
Mice were subcutaneously inoculated with 0.36 mg, 60-day slow-release estrogen tablets in the left shoulder three days before inoculation. When the cells were in the logarithmic growth phase, the cells were collected and counted, and the cell concentration was adjusted to 10×10^7 cells/mL, and an equal volume of Matrigel was added to mix evenly and then used for inoculation. Each mouse was subcutaneously inoculated with 0.2 mL of MCF-7 tumor cell suspension (10×10^6) on the right shoulder. On day 9 after tumor cell inoculation, the average tumor volume was 160 mm^3 and the body weight was 22.0 to 23.0 g, which was administered in groups and administered once a day. Tumor volume and weight measurements were performed twice a week after grouping, and tumor proliferation rate (T/C) and tumor growth inhibition rate (TGI) were calculated for the last tumor volume data on the day 21 after grouping, and the antitumor effect of compounds was evaluated by TGI (%) or relative tumor proliferation rate T/C (%). TGI (%), reflecting the tumor growth inhibition rate. TGI (%)=[(1-(average tumor volume at the end of administration of a certain treatment group-average tumor volume at the beginning of administration of this treatment group)/(average tumor volume at the end of treatment in the solvent control group-average tumor volume at the beginning of treatment in this solvent control group)]×100%, relative tumor proliferation rate T/C (%)=TRTV/CRTV×100% (TRTV: average RTV of the treatment group; CRTV: average RTV of the negative control group). The relative tumor volume (RTV) was calculated according to the results of tumor measurement, and the formula was RTV=Vt/V0, wherein V0 was the average tumor volume measured at the time of group administration (i.e., D0), and Vt was the tumor volume at a certain measurement, TRTV and CRTV were taken on the same day.

[3] = female, Balb/c, mouse, plasma, iv, i.v. 5 mg/kg
[4] = female, Balb/c, mouse, plasma, po, p.o. 10 mg/kg

Compound | Tumor volume ([2]; Day 0, 5 mg/kg once a day) | Tumor volume ([2]; Day 4, 5 mg/kg once a day) | Tumor volume ([2]; Day 7, 5 mg/kg once a day) | Tumor volume ([2]; Day 11, 5 mg/kg once a day) | Tumor volume ([2]; Day 14, 5 mg/kg once a day) | Tumor volume ([2]; Day 18, 5 mg/kg once a day) | T/C (%) (Day 21) ([2]; Day 21, 5 mg/kg once a day) | TGI (%) (Day 21) ([2]; Day 21, 5 mg/kg once a day) | Tumor volume ([2]; Day 21, 5 mg/kg once a day) | other results
FCCCN1CC(Nc2ccc(C3=C(CC(F)(F)F)CCCc4c3ccc3[nH]nc(F)c43)nc2)C1 [Compound 2] | 161 mm^3 | 169 mm^3 | 182 mm^3 | 186 mm^3 | 163 mm^3 | 133 mm^3 | 12.3% | 106% | 118 mm^3 | AUC(0-t) [1, 3]: 8.47 µM·h; clearance [1, 3]: 18.3 mL/min/kg; half-life [1, 3]: 6.85 h; Vd ([1]; female, Balb/c, mouse, plasma, iv, i.v. 5 mg/kg, read-out: Vdss): 10.6 L/kg; bioavailability ([1]; female, Balb/c, mouse, plasma, oral, p.o. 10 mg/kg vs i.v. 5 mg/kg): 71.8%; AUC(0-t) [1, 4]: 11.7 µM·h; Cmax [1, 4]: 937 nM; half-life [1, 4]: 7.67 h
FCCCN1CC[C@H](Nc2cnc(C3=C(CC(F)(F)F)CCCc4c3ccc3[nH]nc(F)c43)cn2)C1 [Compound 11A] | 160 mm^3 | 184 mm^3 | 195 mm^3 | 200 mm^3 | 176 mm^3 | 126 mm^3 | 12.8% | 107% | 112 mm^3 | AUC0-last ([1]; i.v. 5 mg/kg): 5.27 µM·h; Cl ([1]; i.v. 5 mg/kg): 30.2 mL/min/kg; T1/2 ([1]; i.v. 5 mg/kg): 5.16 h; Vdss ([1]; i.v. 5 mg/kg): 11.1 L/kg; AUC0-last ([1]; p.o. 10 mg/kg): 5.856 µM·h; Cmax ([1]; p.o. 10 mg/kg): 779 nM; T1/2 ([1]; p.o. 10 mg/kg): 4.72 h; F % ([1]; p.o. 10 mg/kg vs i.v. 5 mg/kg): 55.4%
